Data set [1] is described as follows: Transport across Caco-2 cell monolayer. It is filed as in vitro ADME. The conditions noted are these: human, 5 μM. As to the method: (§1) Caco-2 cell (passage 38) was used in the transport experiments. Cells were seeded on polycarbonate filters (12 mm diameter, pore size […]) at 1 × 10^5/cm^2. The cell monolayer was formed 21 days post seeding when the transepithelial electrical resistance (TEER) was above 1,000 Ω• cm^2. Three concentration levels (5, 10, and 50 μM) were set for the four schisandra lignans in the study. After preincubation for 1 h at 37°C, the solution of the four lignans was respectively added to the apical (0.4 mL) or basolateral (0.6 mL) chamber for absorptive (AP → BL) and secretive (BL → AP) permeability test. At the specified timepoints (0.5, 1, 1.5 and 2 h), 50 μL samples (n = 3) were withdrawn from receiver chamber, and meanwhile, 50 μL fresh buffer was added. The four lignans were determined by HPLC-MS method.
(§2) The efflux rate (ER) was calculated by the formula ER = Papp (BL → AP)/Papp(AP → BL).
Background: Caco-2 monolayers are a common model of the intestinal barrier.

In the next data set the test system is rat liver. The data set is described as follows: In situ hepatic perfusion of four lignans. In kind it is in vivo. The conditions noted are these: 10 μM, n = 3; for Total amount of analyte in bile / Total amount of analyte in liver: hepatic perfusion 60 min; for AUC: perfusate AUC(0−1h). As to the method: In situ liver perfusion was performed similarly as the method described previously (Uraki et al., [2016]). […] The perfusate consisted of Krebs–Hensleit buffer (pH 7.4) containing sodium taurocholate (4.75 mg/L), 1% bovine serum albumin, and glucose (1.2 g/L) was oxygenated using carbogen, 95% O2/5% CO2. The perfusate at 37°C was infused into the portal vein at a flow rate of 30 mL/min in a recirculatory manner. After 10-min equilibration, four schisandra lignans were added to the reservoir (final concentration of 10 μM). Perfusate (0.5 mL) and bile samples were collected at 0, 10, 20, 30, 40, 50, and 60 min after the addition of lignans. The same volume of blank perfusion buffer was immediately added to the reservoir after collection of the perfusate samples. After hepatic perfusion, rat was sacrificed and liver was removed, blotted dry, and weighed.

The subject of the next data set is Caco-2 cell monolayer. The data set is described as follows: Transport across Caco-2 cell monolayer. In kind it is in vitro ADME. The conditions noted are these: for ER: ER = Papp (BL → AP)/Papp(AP → BL). As to the method: as §1, §2
The subject of data set [2] is rat intestine (jejunum segment). The data set is described as follows: In situ intestinal perfusion of four lignans. In kind it is in vivo. The conditions noted are these: for Perfusate (Percent of the initial dose) / Plasma (Percent of the initial dose) / Intestine (Percent of the initial dose) / Pblood / Plumen: 50 μM, n = 3; for Perfusate (Percent of the initial dose): intestinal perfusion 60 min; for Plasma (Percent of the initial dose) / Intestine (Percent of the initial dose): intestinal perfusion; for Plasma (Percent of the initial dose): mesenteric vein blood. As to the method:
The surgical procedures of intestinal perfusion were conducted according to those published reports (Savina et al., [1981]). Hank's balanced salt solution (HBSS, pH 7.4) with four schisandra lignans (50 μM) at 37°C was infused into the jejunum segment at rate of 0.3 mL/min. Phenol Red (50 μM) was added to serve as a nonabsorbable marker for measuring water flux. Blood samples from mesenteric vein and perfusate were collected at 5-min interval. The plasma separated by centrifugation and perfusate was stored at −20°C until HPLC-MS analysis.
The permeability of four lignans across the rat intestine was calculated based on the disappearance of parent drug from the lumen (Plumen) as well as the appearance of the drug in blood (Pblood) using the following equations (Singhal et al., [1998]):
(1) Plumen = −Q/2πrlLnCout/Cin
(1) Pblood = ΔMB/Δt/2πrl{C}
where r is the radius of the perfused intestinal lumen; l is the length of the segment; Q is the flow rate of perfusate; Cin is the concentration of drug at the start of perfusion; and Cout is the steady-state concentration of drug exiting the lumen. ΔMB/Δt is the rate of drug appearance in mesenteric blood; and {C} is the logarithmic mean concentration of drug in the lumen.

Data set [3] can be described thus: Pharmacokinetics of four lignans in rats after oral SC alcoholic extract. In kind it is in vivo, rat. How it is done:
The pharmacokinetic profiles of four lignans were studied in ALI rat after multiple oral administrations of SC alcoholic extract at dose of 1.5 g/kg/day. After the ALI rat was established, SC alcoholic extract suspended in 0.5% sodium carboxymethyl cellulose was given to ALI rats and the control via oral gavage once a day for 4 consecutive days. Before the last dosing, rats were fasted for 12 h while water was taken freely. Blood samples were collected at 0, 0.25, 0.5, 1, 2, 3, 4, 6, 8, 12, 24, 36, and 48 h after the last dosing. A cannula was surgically placed into the jugular vein for collection of blood samples (about 0.1 mL) and blood loss compensation using sterile isotonic saline in the pharmacokinetic study. Plasma was separated by centrifugation and stored at −20°C until analysis. Plasma concentrations of the four lignans were quantified using HPLC-MS analysis developed according to the reported method (Wang et al., [2008]).
Data fitting and pharmacokinetic parameter calculations were carried out using the Winnolin software. Non-compartmental analysis was used to calculate the pharmacokinetic parameters. Parameters, such as AUC and MRT, were calculated using statistical moment method.

The subject of data set [4] is acute liver injury (ALI) rats. The data set is described as follows: Biochemical indexes of liver and renal functions in CCl4-intoxicated (ALI) rats. In kind it is in vivo, rat. How it is done:
Male Sprague-Dawley rats, weighing 180–220 g, were obtained from Beijing Vital River Experimental Animal Co., Ltd. The animals were quarantined for 1 week prior to study and maintained on a 12-h light/12-h dark cycle at 22 ± 1°C and at 50–55% relative humidity with free access to solid pellet diet and water ad libitum throughout the study. All rats were assigned randomly to three groups, including acute liver injury (ALI) rat, SC-treated ALI rat and the control, 5 in each group. The ALI and SC-treated ALI rats were intraperitoneal injected two doses of the mixture of CCl4 and olive oil (1:1, V/V) at 2 mL/kg in a 24 h time interval (Huang et al., [2001]), while the control group was given the same volume of olive oil. Then, the SC-treated ALI rat was orally dosed with SC alcoholic extract suspended in 0.5% sodium carboxymethyl cellulose (CMC) at 1.5 g/kg/day for 4 days after CCl4 injection. The dosages were set according to the amounts of the four active lignans used previously for pharmacological studies and their contents in the extract (Chiu et al., [2002], [2007]; Cheng et al., [2013]). All animal protocols were approved by the Animal Care and Welfare Committee of the Academy of Military Medical Sciences. All animal procedures complied with the Guide for the Care and Use of Laboratory Animals issued by Beijing Association on Laboratory Animal Care (BALAC).
Serum aspartate transaminase (AST), alanine transaminase (ALT), alkaline phosphatase (ALP), lactate dehydrogenase (LDH), total bilirubin, blood urea nitrogen (BUN), and creatinine (CRE) levels were determined with commercial kits (Nanjing Jiancheng Bioengineering Institute, China).

Setting [5] is: Caco-2, ER = Papp (BL → AP)/Papp(AP → BL).
[6] abbreviates: CCl4-intoxicated rats, oral SC alcoholic extract 1.5 g/kg/day for 4 days, plasma, n = 5.
[7] abbreviates: Control (normal) rats, oral SC alcoholic extract 1.5 g/kg/day for 4 days, plasma, n = 5.
Where [8] appears, read: ALI rat intoxicated with CCl4 vs control rats.
[9] abbreviates: CCl4-intoxicated rats vs control.
The mark [10] stands for this setting: Caco-2, with PSC833 (concentration not stated), + PSC833.

Where two headings read alike, the source gives them in different places.

As for `CC(C)NCC(O)COc1cccc2ccccc12` (stereo not drawn) [Propranolol, propranolol, reference compound], in data set [1] (Caco-2), the Papp A→B at 2 h, 5 μM was found to be 32.9 ± 6.03 ×10⁻⁶ cm/s and the Papp B→A at 2 h, 5 μM was 24.6 ± 1.8 ×10⁻⁶ cm/s. Also, the efflux ratio at 2 h, 5 μM in data set [1] (setting [5]) turned out to be 0.75.
Regarding schisantherin A, in the data set on rat liver (CCl4-intoxicated rats), the “Total amount of analyte in bile” value worked out at 1.61 ± 0.34 µg, the “Total amount of analyte in liver” value turned out to be 17.15 ± 1.84 µg and the AUC was 4790 ± 30 ng·h/mL. Besides, in the data set with rat liver (Control rats), the “Total amount of analyte in bile” value turned out to be 1.48 ± 0.23 µg, the “Total amount of analyte in liver” value turned out to be 12.36 ± 1.65 µg and the AUC is 4080 ± 140 ng·h/mL. Moreover, in the data set with Caco-2 cell monolayer (5 μM), the “Papp(AP−BL)” value is 1.33 ± 0.12 × 10^−6 cm/s, the “Papp(BL−AP)” value is 1.52 ± 0.26 × 10^−6 cm/s and the ER is reported as 1.14. For the same molecule, in the data set with Caco-2 cell monolayer (10 μM), the “Papp(AP−BL)” value was 1.81 ± 0.35 × 10^−6 cm/s, the “Papp(BL−AP)” value is 2.28 ± 0.47 × 10^−6 cm/s and the ER amounted to 1.26. Besides, in the data set on Caco-2 cell monolayer (50 μM), the “Papp(AP−BL)” value is on record as 1.43 ± 0.35 × 10^−6 cm/s, the “Papp(BL−AP)” value is recorded as 1.28 ± 0.24 × 10^−6 cm/s and the ER was 0.89. Moreover, in data set [2] (CCl4-intoxicated rats), the “Perfusate (Percent of the initial dose)” value was 92.85 ± 1.33% of the initial dose, the “Plasma (Percent of the initial dose)” value was 0.82 ± 0.04% of the initial dose, the “Intestine (Percent of the initial dose)” value is listed as 1.95 ± 0.36% of the initial dose and the Pblood is recorded as 0.060 ± 0.016 × 10^−4 cm/s. For the same molecule, the Plumen in data set [2] (CCl4-intoxicated rats) was 2.047 ± 0.373 × 10^−4 cm/s. In data set [2] (Control rats), the “Perfusate (Percent of the initial dose)” value was 92.47 ± 1.06% of the initial dose, the “Plasma (Percent of the initial dose)” value was 0.80 ± 0.07% of the initial dose, the “Intestine (Percent of the initial dose)” value is 1.65 ± 0.37% of the initial dose and the Pblood is given as 0.047 ± 0.006 × 10^−4 cm/s. Further, the Plumen in data set [2] (Control rats) is given as 2.303 ± 0.163 × 10^−4 cm/s. Further, the “Increase of remaining amount in perfusate” value in data set [2] (intestinal autoperfusion (60 min), CCl4-treated rats vs control) was “not changed”. In addition, in data set [3] (setting [6]), the AUC(0−t) is 99600 ± 45600 ng·h/mL, the CLz/F stood at 234.05 ± 115.74 L/h/kg, the Cmax worked out at 3190 ± 1160 ng/mL and the “MRT(0−t)” value was 19.84 ± 1.18 h. For the same molecule, in data set [3] (setting [6]), the Tmax was found to be 9.60 ± 3.29 h and the t1/2 is reported as 17.65 ± 3.32 h. Further, the “Reduction of systemic clearance (CLz/F)” value in data set [3] (CCl4 intoxicated rats vs control rats) was roughly 89%. For the same molecule, in data set [3] (setting [7]), the AUC(0−t) is 11300 ± 3870 ng·h/mL, the highest concentration (Cmax) was 569 ± 163 ng/mL, the “MRT(0−t)” value amounted to 15.42 ± 0.29 h and the Tmax is given as 5.00 ± 1.41 h. In data set [3] (setting [7]), the t1/2 is reported as 12.39 ± 2.12 h.
In the case of `ClC(Cl)(Cl)Cl` [CCl4, carbon tetrachloride], in data set [4] (setting [8]), the “Decrease of content of liver microsomal CYP450 enzyme” value amounted to 54%, the “Increase of BUN” value turned out to be 30%, the “Increase of liver index” value is given as 40% and the “Increase of serum ALT” value came to 720%. For the same molecule, the “Increase of serum AST” value in data set [4] (setting [8]) was 30%. Further, in data set [4] (CCl4-intoxicated rats), the BUN came out at 18.3 ± 1.2 mg/dL and the CRE is given as 0.8 ± 0.1 mg/dL. In addition, in data set [4] (setting [9]), the “Serum ALT increase” value was determined as 8.2 folds and the “Serum AST increase” value was 1.3 folds. For the same molecule, in data set [4] (CCl4-intoxicated rats, CCl4:olive oil (1:1) 2 mL/kg i.p., two doses), the Liver index turned out to be 38 ± 5 g/kg. The “Liver P450” value in data set [4] (CCl4-intoxicated rats, liver microsomal CYP450 content) was found to be 0.27 ± 0.12 nmol/mg. In addition, in data set [4] (CCl4-intoxicated rats, serum), the ALP turned out to be 8.15 ± 0.09 IU/L, the ALT was 329 ± 49 IU/L, the AST is 268 ± 49 IU/L and the LDH was found to be 605 ± 168 IU/L. Further, in data set [4] (CCl4-intoxicated rats, total bilirubin), the TB was found to be 0.09 ± 0.02 mg/dL.
With `C[C@H]1O[C@@H](O[C@H]2[C@@H](O)C[C@H](O[C@H]3[C@@H](O)C[C@H](O[C@H]4CC[C@@]5(C)[C@H](CC[C@@H]6[C@@H]5C[C@@H](O)[C@]5(C)[C@@H](C7=CC(=O)OC7)CC[C@]65O)C4)O[C@@H]3C)O[C@@H]2C)C[C@H](O)[C@@H]1O` [Digoxin, digoxin, reference compound], the Papp A→B at 2 h, 5 μM in data set [1] (setting [10]) was 1.46 ± 0.24 ×10⁻⁶ cm/s; in data set [1] (Caco-2), 3.29 ± 4.02 ×10⁻⁶ cm/s. The Papp B→A at 2 h, 5 μM was determined as 2.38 ± 0.58 ×10⁻⁶ cm/s in data set [1] (setting [10]) and 11.6 ± 0.82 ×10⁻⁶ cm/s in data set [1] (Caco-2). For the same molecule, the efflux ratio at 2 h, 5 μM in data set [1] (Caco-2, with PSC833 (concentration not stated), + PSC833, read-out: ER) was 1.63; in data set [1] (setting [5]), 3.53.

As a reminder, the Papp A→B is how fast a substance crosses the layer from the apical side. One may read the Papp B→A as the apparent permeability from the basolateral to the apical side of a cell layer. As usually defined, the AUC is the area under the concentration-time curve, a measure of exposure. Read a low AUC as less exposure. As a reminder, the Cmax is the peak of the concentration-time curve. Usually Tmax stands for the time from dosing to the highest level.

The values are drawn from PMC5861220, “The Cytochrome P450-Mediated Metabolism Alternation of Four Effective Lignans From Schisandra chinensis in Carbon Tetrachloride-Intoxicated Rats and Patients With Advanced Hepatocellular Carcinoma” (Frontiers in Pharmacology, 2018).
